Data reported in patent publication EP4268823A1, “COMPOUND FOR TREATING NEUROINFLAMMATION” (Universitätsklinikum Hamburg-Eppendorf, priority 2022, dated 2023).

Legend:
[1] = tested on: primary neuronal cultures; assay: Cytosolic calcium imaging of H2O2-exposed neuronal cultures; assay type: cell-based, mouse; conditions: acute hydrogen peroxide stimulation, UNC0642 vs. DMSO
Protocol: For primary cortical cultures pregnant C57BL/6J, or G9afl/fl;Snap25-Cre mice were euthanized. To ensure comparability between genotypes, only embryos from heterozygous breeding's were used. Brainstem tissue of each embryo for genotyping was reserved and cortices were isolated, dissociated and cells were plated at a density of 1 × 10^5 cells per 1 cm^2 on poly-D-lysine-coated wells (5 µM Sigma-Aldrich, cat. no. A-003-M). If not stated otherwise, cells were maintained in neurobasal plus medium (supplemented with B27 plus, penicillin, streptomycin and L-glutamine; Gibco, cat. no. A3582901) at 37°C, 5% CO^2 and a relative humidity of 98%, and treated with 1 µM cytarabine (Sigma-Aldrich, cat. no. BP383) at 1 day in vitro (div) to inhibit glial cell proliferation. If no cytarabine was applied cells were maintained in PNBM medium (supplemented with neural cell survival factor, gentamycin and L-glutamine; Lonza). […]
Primary neuronal cultures were seeded on Ibidi 60 µ-Dish Quad (cat. No. 80411) plates. […] Before applying the indicated chemicals, 5-10 min of baseline activity was first recorded. […] For data analysis, mean fluorescence values of every cell were measured using Fiji software (NIH) and normalized to the maximal calcium response after ionomycin challenge. For each cell, mean AUC of the calcium response was calculated using a custom R script.

[2] = tested on: ferroptosis-related genes; assay: mRNA expression of ferroptosis-related genes in erastin-treated hiPSC-neurons; assay type: cell-based; conditions: erastin-treated human neurons ± UNC0642
From the text: Human iPSCs (ZIPi013-B) (83) were maintained under feeder-free conditions on Matrigel (Corning)-coated plates in mTeSR1 medium (Stem Cell Technologies, cat. no. 85850). For neuronal induction, iPSCs were dissociated with Accutase and seeded at a density of 3 × 10^6 cells per well on AggreWell800 plates (10,000 cells per embryoid body (EB), Stem Cell Technologies) in SMADi Neural Induction Medium (SMADi NIM, Stem Cell Technologies, cat. no. 08582) supplemented with […] (Stem Cell Technologies, cat. no. 72302). On day 6, EBs were harvested and cultivated on Matrigel-coated plates in SMADi NIM for 12 days. Newly formed neural rosettes were manually picked and cultured for another 4 days. In order to release neural precursor cells (NPCs), neural rosettes were dissociated with Accutase and were maintained for several passages at high density in Neural Progenitor Medium (Stem Cell Technologies, cat. no. 05833) on Matrigel-coated plates. HiPSC-derived NPCs were differentiated into neurons as previously described (84, 85) with some modifications. Briefly, NPCs were seeded at a density of 1 × 10^5 cells per cm^2 in Neural Progenitor Medium onto Matrigel-coated plates. […]
RNA was extracted using RNeasy Mini Kit (Qiagen) and subsequently reverse-transcribed to complementary DNA with the RevertAid H Minus First Strand cDNA Synthesis Kit (Thermo Fisher Scientific) according to the manufacturer's instructions. Gene expression was analyzed by real-time PCR performed in an ABI Prism 7900 HT Fast Real-Time PCR System (Applied Biosystems) using TaqMan Gene Expression Assays (Thermo Fisher Scientific). Gene expression was calculated as 2-ΔCt relative to Tbp as the endogenous control.

COc1cc2c(NC3CCN(C(C)C)CC3)nc(N3CCC(F)(F)CC3)nc2cc1OCCCN1CCCC1 [UNC0642, 2-(4,4-difluoropiperidin-1-yl)-6-methoxy-N-[1-(propan-2-yl)piperidin-4-yl]-7-[3-(pyrrolidin-1-yl)propoxy]quinazolin-4-amine]
hydrogen peroxide-induced calcium overload [1]: rescued hydrogen peroxide-induced calcium overload | mRNA expression of GPX4 [2]: significant upregulation | mRNA expression of Gclc [2]: significant upregulation | mRNA expression of SLC7A11 [2]: highly upregulated
